Data taken from patent US11326992B2 (priority 2016, dated 2022).

Assays:
[1] = Short term on-card stability; settings: day 28, stored in the presence of air (RT+Air and −20° C.+Air)
[2] = morphine value marked (base); cited from earlier work
[3] = Blood:Plasma binding ratio of guanfacine test sample; type: in vitro ADME; settings: whole blood sample; read-out: Blood:Plasma binding ratio (Ke/p)
Procedure: The multilayer device of the invention was tested using a known hypertension and ADHD drug, guanfacine, with its [^13C, ^15N3] internal standard, Guanfacine (C9H9Cl2N3O) has a monoisotopic mass of 245.0123 Da, while the internal standard [^13C, ^15N3]-guanfacine (^13CC8H9Cl2^15N3O) has a monoisotopic mass of 249.0067 Da. These compounds were tested using a whole blood sample with a Blood:Plasma binding ratio (Ke/p) of 1.5 and analyzed using LC-MS/MS bioanalysis following the protocol described here.

[4] = High QC 900 ng/mL, ANOVA p<0.0001

SMILES	on-card stability [1, 4]	on-card stability ([1]; LLOQ 5 ng/mL, ANOVA)	pKa [2]	blood plasma ratio [3]
COc1ccc2c3c1O[C@H]1C(=O)CC[C@H]4[C@@H](C2)N(C)CC[C@]314 [Hydrocodone]	significant decompositions	significant decomposition	–	–
CNC(C)Cc1ccc2c(c1)OCO2 (centres unmarked) [MDMA, 3,4-methylenedioxymethamphetamine]	–	–	9.9	–
CNC(C)C(=O)c1ccc(C)cc1 (centres unmarked) [Mephedrone]	significant decompositions	significant decomposition	9.0	–
CNC(C)Cc1ccccc1 (centres unmarked) [Methamphetamine]	–	–	9.9	–
COc1ccc2c3c1O[C@H]1C(=O)CC[C@@]4(O)[C@@H](C2)N(C)CC[C@]314 [Oxycodone]	significant decompositions	significant decomposition	–	–
CC(C)(N)Cc1ccccc1 [Phentermine]	–	–	10.1	–
N=C(N)NC(=O)Cc1c(Cl)cccc1Cl [guanfacine]	–	–	–	1.5
